ChEMBL document CHEMBL1201862, “PubChem BioAssay data set” (2004)
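All cell lines were grown in 96-well plates and treated with compound for 48 hours. At the GI50, growth is halved.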 Active and inactive are the calls of the source. Cut-off read from the data, not from the text of the source: active = GI50 up to about 1.1 µM and inactive = higher.

How the values were obtained:
Test in all cases: NCI tumour cell line growth inhibition, 48 h
[1] = test system: A549
[2] = test system: EKVX
[3] = test system: HCC 2998
[4] = test system: HOP-62
[5] = test system: K562
[6] = test system: LOX IMVI
[7] = test system: MDA-N
[8] = test system: Malme-3M
[9] = test system: OVCAR-8
[10] = test system: SF-539
[11] = test system: SK-MEL-28
[12] = test system: SK-OV-3
[13] = test system: SN12C
[14] = test system: SR
[15] = test system: SW-620
[16] = test system: UACC-257
[17] = test system: UACC-62
[18] = test system: NCI-H23
[19] = test system: OVCAR-4
[20] = test system: NCI/ADR-RES

Measured: GI50

O=C1OC2(CCCCC2)C(Oc2ccc(Cl)cc2)=C1F
inactive: [1] 42.1 µM | [2] 38.2 µM | [3] 22.3 µM | [4] > 100 µM | [5] 30.6 µM | [6] 27.9 µM | [7] 37.2 µM | [8] 15.6 µM | [9] 51.9 µM | [10] > 100 µM | [11] 23.7 µM | [12] > 100 µM | [13] 45.2 µM | [14] 33.5 µM | [15] 23.6 µM | [16] 24.3 µM | [17] 22.1 µM

O=[N+]([O-])c1cccc(/N=C2\c3ccccc3CN2c2cccc([N+](=O)[O-])c2)c1
inactive: [1] > 100 µM | [2] > 100 µM | [3] > 100 µM | [4] > 100 µM | [5] > 100 µM | [6] > 100 µM | [7] > 100 µM | [18] > 100 µM | [19] 65.9 µM | [9] > 100 µM | [10] 71 µM | [11] > 100 µM | [12] > 100 µM | [13] > 100 µM | [15] > 100 µM | [16] > 100 µM | [17] > 100 µM

CCOC(=O)Cn1c(=O)c2nc(SC)sc2n(-c2ccccc2)c1=O
inactive: [1] > 100 µM | [2] > 100 µM | [3] > 100 µM | [4] > 100 µM | [5] > 100 µM | [7] > 100 µM | [8] > 100 µM | [18] > 100 µM | [9] > 100 µM | [11] > 100 µM | [13] > 100 µM | [14] > 100 µM | [15] > 100 µM | [16] > 100 µM | [17] > 100 µM

CCOC(=O)c1nc2ccccc2nc1Oc1ccc(F)cc1
inactive: [1] > 100 µM | [2] > 100 µM | [4] > 100 µM | [5] > 100 µM | [6] > 100 µM | [7] > 100 µM | [20] > 100 µM | [9] > 100 µM | [10] > 100 µM | [11] > 100 µM | [12] > 100 µM | [13] > 100 µM | [15] > 100 µM | [16] > 100 µM | [17] > 100 µM

COc1ccc2oc(=O)c(-c3csc(-c4ccccc4)n3)cc2c1
inactive: [1] 64.7 µM | [2] 41.4 µM | [3] 95.7 µM | [4] 17.4 µM | [5] > 100 µM | [6] 54.8 µM | [7] > 100 µM | [19] 31 µM | [10] 16.9 µM | [11] > 100 µM | [12] 17.3 µM | [14] > 100 µM | [15] 57.7 µM | [16] > 100 µM | [17] 34.5 µM
